Results from patent publication US9475842B2, “Hexadepsipeptide analogues as anticancer compounds” (PIRAMAL ENTERPRISES LIMITED, priority 2012, dated 2016).

Experiments:
[1] = test system: MCF-10A, a non-tumourigenic cell line; assay: Monolayer assay (CCK-8 cytotoxicity), normal cells; format: cell-based; settings: MCF10A, Normal Breast Epithelium, 24 hrs exposure, CCK-8
Protocol: The assays were designed as in the reference, BMC Cancer, 2010, 10, 610, 1-11; the disclosure of which is incorporated by reference for the teaching of the assay.
Human tumour cell lines: Panc-1 (Pancreatic Cancer), HCT 116 (Colorectal Cancer), ACHN (Renal Cell Carcinoma), Calu-1 (Lung Carcinoma), MiaPaca2 (Pancreatic Cancer), FADU (Head and Neck Cancer), PC3 (prostate Cancer), G361 (Melanoma), MDA-MB435S (Melanoma), HeLa (Cervical Cancer) were grown in Minimal Essential Media with Eagle's Basal Salts (MEM-EBS) obtained from AMIMED (BioConcept-Switzerland). Tumour cell lines: MDA-MB231 (Breast Cancer), JURKAT (T cell leukaemia), H460 (Small Cell Lung Cancer) were cultured in RPMI 1640 (AMIMED, BioConcept, Switzerland) medium. All tumour cell lines were supplemented with 10% Foetal Bovine Serum (FBS) (GIBCO), 1% Penicillin/Streptomycin (Sigma) and 1% Anti-Anti (GIBCO) and grown in T-175 tissue culture flasks (Nunc). MCF-10A, a non-tumourigenic cell line, was cultured in Mammary Epithelial Basal Medium (MEBM) with all standard additions (Lonza, Catalog. No. CC-3150). All cells were grown in 5% CO2 incubator at 37° C. Cells were passaged at 80-90% confluence. Adherent cells were trypsinised using Trypsin-EDTA (Sigma) and maintained. All cell lines were purchased from ATCC (Rockville, Md., USA).
Compound of Formula (1a) [described in example 7] was dissolved in DMSO to give a required stock solution of 20 mM. Eight different concentrations of the compound of Formula (1a) were prepared by serial dilution of stock solution finally resulting in a (compared to the test concentration) 200-fold higher concentration. Compound of Formula (1a) was tested at the concentration of 0.0001 μM, 0.001 μM, 0.01 μM, 0.03 μM, 0.1 μM, 0.3 μM, 1 μM and 3 μM respectively. Each concentration was evaluated in triplicate.
Method for determination of IC50 of the compound of Formula (1a): • a) Different cancer/normal cells were seeded at a density of 3000 cells/200 μL well, in a tissue culture grade 96 well plate and allowed them to recover for 24 hrs in a humidified 5±0.2% CO2 incubator at 37±0.5° C. • b) After 24 hrs, 1 μL of 200× (200 times higher than required concentration is denoted as 200×) compound of Formula (1a), dissolved in DMSO, was added to the above tissue culture plate seeded with cancer/normal cells. The final concentration of DMSO was 0.5% in wells. DMSO was used as a vehicle control. • c) After 24 hrs the plate was removed from CO2 incubator and 5 μL of CCK-8 (Dojindo Molecular Technologies, Inc. USA, catalog, no. CK04-20) per well was added. • d) The plate was then placed at 37° C. for 2 hrs. • e) The absorbance was recorded at 450 nm. • f) The percent cytotoxicity was calculated using the following formula
The IC50 value was estimated by visual inspection of the concentration-effect curve. For calculation of mean IC50 values over the fourteen cell lines as tested, the geometric mean was selected.
The assays were designed as described above in example 16.
The IC50 value was estimated by visual inspection of the concentration-effect curve. For calculation of mean IC50 values over the six cell lines (PC3, MDA MB, HCT116, MCF7, MIAPaCa2, MCF10A) as tested, the geometric mean was selected.

[2] = test system: tumor protein 53 (p53) in HeLa cells; assay: Protein expression by high content screening (Cellomics); format: cell-based, human; settings: for Fold activation with respect to control cells, P53: HeLa cells, after 3 hours
Protocol: (§1) Protein expressions of cyclin D, nuclear factor-kappa B (p65) [NFkB (p65)], ribosomal protein S6 (pS6), tumor protein 53 (p53), protein c-jun N-terminal kinase (pJNK), cleaved caspase 9, cleaved caspase 3 and cleaved poly(ADP-ribose) polymerase (PARP) was carried out in HeLa cells [referred to in step 1 of example 16] by Cellomics high content imaging. These primary antibodies were purchased from Santacruz Biotechnology, USA. Briefly 1×10^4 cells were seeded in 96 well tissue culture grade black plate with transparent bottom (Nunc, USA), and allowed to adhere for 24 h, and then replaced with fresh media, and cells were treated with 0.01 μM, 0.003 μM and 0.0003 μM concentrations of compound of Formula (1) [referred to in step 2 of example 16] and incubated for 1 h and 3 h respectively. After respective time point, cells were fixed with 3.7% formaldehyde (Sigma St. Louis, Mo.) for 10 minutes at RT, followed by permeabilization with 0.15% Triton X-100 (Sigma St. Louis, Mo.) for 10 minutes. Then the cells were blocked with 5% Bovine Serum Albumin for 2 hours. After blocking step, specific primary antibodies were added for 1 h, and primary antibodies of different protein were localized by secondary antibody labeled with Dylight548 (red) (Thermofisher, USA). Following secondary incubation, the nucleus was stained with Hoechst 3342 (blue) (Sigma, USA). Immunofluorescence was determined by scanning the plates on Cellomics Array Scan® VTI HCS Reader (Thermo-Fisher Scientific Inc., Waltham, Mass.). All the data points were analyzed using the Compartmental Analysis bio-algorithm of Cellomics and quantitative data were expressed as % activation in comparison to the untreated cells. 1000 cells were counted for each replicate well and the results were presented as an average±S.E.

cyclin D in HeLa cells = assay: as above; format: cell-based, human; settings: for Fold down regulation with respect to control cells, Cyclin D: HeLa cells, after 3 hours
Protocol: as §1

Structure (SMILES): CC(C)CC1CCC(O)(C(C)(O)C(=O)NC2C(=O)N3NCCCC3C(=O)N(O)C(C)C(=O)NCC(=O)N3NCCCC3C(=O)N(O)C(C)C(=O)OC2C(C)C)OC1C (stereo not shown) [Formula (1a), N-(6,18-dihydroxy-22-isopropyl-7,19-dimethyl-5,8,11,17,20,24-hexaoxotetracosa hydrodipyridazino[6,1-f:6′,1′-o][1,4,7,10,13,16]oxapentaazacyclononadecin-23-yl)-2-hydroxy-2-(2-hydroxy-5-isobutyl-6-methyltetrahydro-2H-pyran-2-yl)propanamide]
- IC50 ([1]; Homo sapiens, MCF-10A, 24 h): 19 nM
- IC50 [1]: 19.7 ± 3.1 nM
- Fold activation with respect to control cells, P53 ([2]; 0.0003 μM): −0.15 fold
- Fold activation with respect to control cells, P53 ([2]; 0.003 μM): 0.55 fold
- Fold activation with respect to control cells, P53 ([2]; 0.01 μM): 2.27 fold
- effect on p53 expression (in words) ([2]; cancer cells, conclusion): up-regulates
- Fold down regulation with respect to control cells, Cyclin D (cyclin D in HeLa cells; 0.0003 μM): −0.57 fold
- Fold down regulation with respect to control cells, Cyclin D (cyclin D in HeLa cells; 0.003 μM): −0.89 fold
- Fold down regulation with respect to control cells, Cyclin D (cyclin D in HeLa cells; 0.01 μM): −3.81 fold
- effect on cyclin D protein expression (in words) (cyclin D in HeLa cells; cancer cells, conclusion): significantly downregulates
